Here are results for one molecule from patent US20140066394A1, “Substituted 6-(Benzylamino) Purine Riboside Derivatives, Use Thereof and Compositions Containing These Derivatives” (Biopatterns, S.R.O, priority 2009, published 2014).

A word on the GI50: it is the concentration giving 50% growth inhibition. The IC50 is the concentration that gives 50% inhibition. Higher therefore signals a need for much substance.

Assay [1] relates to promyelocytic HL-60 leukemia. Description: In vitro cytotoxicity, Calcein AM assay, HL60. To be noted: Homo sapiens, HL-60, 72 hours. In kind it is cell-based, human. The text has this: (§1) Low cytotoxicity of the compounds is the major property determining the cosmetic use. One of the parameters used, as the basis for cytotoxicity assays, is the metabolic activity of viable cells. For example, a microtiter assay, which uses the Calcein AM, is now widely used to quantitate cell proliferation and cytotoxicity. For instance, this assay is used in drug screening programs and in chemosensitivity testing. Because only metabolically active cells cleave Calcein AM, these assays detect viable cells exclusively. The quantity of […] Calcein AM corresponds to the number of vital cells in the culture.
(§2) Human T-lymphoblastic leukemia cell line CEM; promyelocytic HL-60 and monocytic U937 leukemias; breast carcinoma cell lines MCF-7, BT549, MDA-MB-231; glioblastoma U87MG cells; cervical carcinoma cells HELA; sarcoma cells U2OS and Saos2; hepatocellular carcinoma HepG2; mouse fibroblasts NIH3T3; mouse immortalized bone marrow macrophages B2.4 and B10A.4; P388D1 and L1210 leukemia; B16 and B16F10 melanomas; human osteosarcoma HOS; human myeloid leukemia K-562; human skin melanoma G-361 were used for routine screening of compounds. The cells were maintained in Nunc/Corning 80 cm^2 plastic tissue culture flasks and cultured in cell culture medium (DMEM with 5 g/l glucose, 2 mM glutamine, 100 U/mL penicillin, 100 μg/mL streptomycin, 10% fetal calf serum and sodium bicarbonate).
(§3) The cell suspensions that were prepared and diluted according to the particular cell type and the expected target cell density (2.500-30.000 cells per well based on cell growth characteristics) were added by pipette ([…]) into 96/well microtiter plates. Inoculates were allowed a pre-incubation period of 24 hours at 37° C. and 5% CO2 for stabilisation. Four-fold dilutions of the intended test concentration were added at time zero in 20 μl aliquots to the microtiter plate wells. Usually, the compound tested was evaluated at six 4-fold dilutions. In routine testing, the highest well concentration was 100 μM, but it can be the matter of change dependent on the agent. All drug concentrations were examined in duplicates. Incubations of cells with the tested compounds lasted for 72 hours at 37° C., in 5% CO2 atmosphere and 100% humidity. At the end of the incubation period, the cells were assayed by using Calcein AM. Ten microliters of the stock solution were pipetted into each well and incubated for 1 hour. Fluorescence (FD) was measured with the Labsystem FIA Reader Fluoroscan Ascent (UK). The tumour cell survival (GI50) was calculated using the following equitation: TCS=(FDdrug exposed well/mean FDeontrol wells)×100%. The GI50 value, the drug concentration lethal to 50% of the tumour cells, was calculated from the obtained dose response curves.
(§4) Zero cytotoxicity of the novel compounds is the basic prerequisite for agricultural and tumor-unrelated applications. The cytoxicity of the novel compounds was tested on a panel of cell lines of different histogenetic and species origin (Table 9). We show herein that equal activities were found in all tumour cell lines tested, however, the non-malignant cells, e.g. NIH3T3 fibroblasts and normal human lymphocytes, were resistant to 2,6-disubstituted purine ribosides induced cytotoxicity. The compounds listed in Tab. 9 can be divided into 2 groups. The first group contains “classical cytokinins” represented by 6-substituted purine ribosides (which are known in the prior art). The second group contains the novel 2,6-disubstituted derivatives of these compounds. […] GI50 for NIH3T3 fibroblasts and normal human lymphocytes was always higher than 100 μM. The novel derivatives show no toxicity to normal and tumour cells in concentrations about 100 μM and thus are more suitable for agricultural applications than “classical cytokinins” (6-substituted purine riboside derivatives).

The test system of assay [2] is neutrophils. Description: Neutrophil adhesion, rolling and migration under flow over TNF primed HUVEC. It counts as cell-based, human. On the procedure: Neutrophils were introduced into a flow based cell adhesion instrument at 5×10^6 cells/ml in medium containing 50 or 100 μM of compound 10. The capillary system is lined with TNF-primed HUVEC and cell adhesion, rolling and transmigration is monitored by time-lapse video microscopy. Data are expressed as cells adhered to HUVEC per mm^2, per 10^6 cells (left panel) or % of cells rolling or migrated (right panel). LGR 1406 (N-5-(2-aminocyclohexyl)-N-7-benzyl-3-isopropyl-1(2)H-pyrazolo[4,3-d]pyrimidine-5,7-diamine, Sroka et al. Mol Pharmacol. 2010; 77(2):255-61) was used as a negative control. Data are mean±SD of 3 separate experiments.
LGR 1406 as a negative control.
The ability of neutrophils to adhere to vascular endothelium and migrate from the blood into tissue, is the first step in the inflammatory process. Interference with this process would also result in suppression of inflammation. Neutrophils were flowed over TNF primed endothelial cells (HUVEC) lining a capillary based migration system, at flows rates and pressures mimicking the in vivo vasculature (see for detailed description of apparatus). Cells were recorded using time-lapse video microscopy and the numbers of rolling, adhered and transmigrated cells were enumerated over a 20 minute period. In test incubations the neutrophils and HUVEC were pre-treated with compound 10 at 50 and 100 μM and the compound was also present in the medium in which neutrophils were suspended.

For the next assay, the system named is human osteosarcoma HOS. Put plainly: In vitro cytotoxicity, Calcein AM assay, HOS. The note with it: Homo sapiens, 72 hours. In kind it is cell-based.
Excerpt: as §1, §2, §3, §4

Assay [3] relates to neutrophils. Put plainly: Neutrophil superoxide generation, lucigenin based assay. In kind it is cell-based. To be noted: Homo sapiens, primed neutrophils, compound 10 minutes prior to fMLP (FIG. 2). On the procedure:
Neutrophils were cultured at 2×10^6 cells/ml in RPMI1640 medium containing human serum antibiotics and 20 ng/ml TNFα for 10 minutes prior to addition of a range of concentrations of compound 10. Generation of superoxide was determined over a 10 minute period using a lucigenin based assay. The area under the curve was calculated to give superoxide generation over the whole assay period.
Anti-inflammatory effects against neutrophils were determined by assessing effects of several of the compounds on neutrophil inflammatory activity (superoxide generation, secretion of chemoattractant IL8 and degranulation to release myeloperoxidase). Neutrophils were isolated from human blood to a purity of greater than 95% and were cultured in RPMI1640 medium containing 2% human AB serum, 2 mM L-glutamine and antibiotics (100 U/ml penicillin, […] streptomycin). Neutrophils were primed for 30 minutes with 50 ng/ml GM-CSF prior to treatment with the bacterial stimulant fMLP (100 ng/ml) and measurement of superoxide generation in a lucigenin based assay (see Pongracz J and Lord J M 1998, Biochem. Biophys. Res. Commun. 247, 624-629) and release of IL8 and myeloperoxidase using an ELISA method. The novel compounds were added to the culture at a range of concentrations (0.1-100 μM) 10 minutes prior to addition of fMLP. […]

For assay [4], the system named is neutrophils. Description: Neutrophil spreading in Fibronectin. It counts as cell-based. To be noted: FIG. 8.
In assay [5] the test system is human myeloid leukemia K-562. Put plainly: In vitro cytotoxicity, Calcein AM assay, K-562. In kind it is cell-based. The note with it: Homo sapiens, K562, 72 hours.
Excerpt: as §1, §2, §3, §4

Setting [6] is: compound at 50 and 100 μM, 20 minute period.

Consider `COc1cccc(CNc2nc(Cl)nc3c2ncn3C2OC(CO)C(O)C2O)c1O` (centres unmarked) [Compound 10, 2-Chloro-6-(2-hydroxy-3-methoxybenzylamino)purine riboside], for which the GI50 (in assay [1]; in the assay on human osteosarcoma HOS; in assay [5]) was more than 100 µM throughout. In the assay with neutrophils [2] (FIG. 7, LGR 1406 as negative control), the neutrophil rolling velocity result is on record as “positive effects”. Besides, in the assay on neutrophils [2] (setting [6]), the “number of cells that adhered and transmigrated through the endothelial layer” value is “reduced the number of cells that adhered and transmigrated”. Further, the “number of cells that rolled over the endothelium” value in the assay on neutrophils [2] (setting [6]) was “increased the ones that rolled over the endothelium”. In addition, in the assay with neutrophils [3], the IC50 is 5 µM. For the same molecule, the “neutrophil spreading in Fibronectin” value with neutrophils [4] is reported as “reduces neutrophil spreading”.
